One data set has as its system Klebsiella pneumoniae. In words: Antibacterial activity against Klebsiella pneumoniae 1433 assessed as growth inhibition by microbroth dilution assay. Format: functional. In general terms: In broth dilution the organism is exposed to a series of concentrations in liquid medium.
The test system of another data set is Staphylococcus aureus. In words: Antibacterial activity against Staphylococcus aureus 635 assessed as growth inhibition by microbroth dilution assay. Format: functional.
The test system of another data set is Enterococcus faecium. Put plainly: Antibacterial activity against Enterococcus faecium 1450 assessed as growth inhibition by microbroth dilution assay. In kind it is functional.
The next data set has as its system Acinetobacter baumannii. In words: Antibacterial activity against Acinetobacter baumannii 5075 assessed as growth inhibition by microbroth dilution assay. Format: functional. Conditions: AB5075.
In a further data set the test system is Pseudomonas aeruginosa. Put plainly: Antibacterial activity against Pseudomonas aeruginosa 1419 assessed as growth inhibition by microbroth dilution assay. Format: functional.
A further data set has as its system Enterobacter cloacae. In words: Antibacterial activity against Enterobacter cloacae 1454 assessed as growth inhibition by microbroth dilution assay. Format: functional.
The nature of data set [1]: Hemolytic activity in human RBC assessed as hemolysis at 50 uM relative to control. Conditions: red blood cells (erythrocytes), read-out: Activity. Format: ADME, cell-based, Erythrocyte.
The next data set has as its system Erythrocyte. Put plainly: Hemolytic activity in human RBC assessed as hemolysis at 50 uM. In kind it is ADME, cell-based.

SMILES strings stand for the structures. Numbered stars: 1 amine (or outer) side, 2 acyl side, 3 side chain; on linkers, the order of the positions; unused ones are H or OH. Square brackets hold non-standard residues; d marks the D form. Peptide text beside a SMILES is read from it. X1 = NN([C@H](Cc1ccccc1)C(=O)[*:2])[*:1]; Orn(Nα-NH2) = NCCC[C@H](NN)C(=O)O; Orn = NCCC[C@H](N)C(=O)O

A word on the MIC: it is the smallest concentration in the dilution series that meets the test's criterion for growth inhibition. On to `CC(C)C[C@@H]1NC(=O)[C@H](CCCN)N(N)C(=O)[C@H](C(C)C)NC(=O)[C@@H]2CCCN2C(=O)[C@@H](Cc2ccccc2)NC(=O)[C@H](CC(C)C)NC(=O)[C@H](CCCN)N(N)C(=O)[C@H](C(C)C)NC(=O)[C@@H]2CCCN2C(=O)[C@@H](Cc2ccccc2)NC1=O` (cyclo(L[dF]PV[Orn(Nα-NH2)]L[dF]PV[Orn(Nα-NH2)])), for which the MIC was 45 µM in the data set on Klebsiella pneumoniae; 2 µM in the data set with Staphylococcus aureus; 2 µM with Enterococcus faecium; 4 µM in the data set with Acinetobacter baumannii; 10 µM with Pseudomonas aeruginosa; 20 µM in the data set on Enterobacter cloacae. Besides, the hemolysis at 50 µM in data set [1] turned out to be 16%.

Take `CC(C)C[C@@H]1NC(=O)[C@H](CCCN)NC(=O)[C@H](C(C)C)NC(=O)[C@@H]2CCCN2C(=O)[C@@H](Cc2ccccc2)N(N)C(=O)[C@H](CC(C)C)NC(=O)[C@H](CCCN)N(N)C(=O)[C@H](C(C)C)NC(=O)[C@@H]2CCCN2C(=O)[C@@H](Cc2ccccc2)NC1=O` (cyclo(L[dF]PV[Orn(Nα-NH2)]L[X1]PV[Orn])): the MIC in the data set on Klebsiella pneumoniae is 45 µM; with Staphylococcus aureus, 2 µM; in the data set on Enterococcus faecium, 3 µM; in the data set on Acinetobacter baumannii, 6.5 µM; in the data set on Pseudomonas aeruginosa, 15 µM; in the data set on Enterobacter cloacae, 15 µM.

With `CC(C)C[C@@H]1NC(=O)[C@H](CCCN)NC(=O)[C@H](C(C)C)NC(=O)[C@@H]2CCCN2C(=O)[C@@H](Cc2ccccc2)N(N)C(=O)[C@H](CC(C)C)NC(=O)[C@H](CCCN)NC(=O)[C@H](C(C)C)NC(=O)[C@@H]2CCCN2C(=O)[C@@H](Cc2ccccc2)NC1=O` (cyclo(L[dF]PV[Orn]L[X1]PV[Orn])), the MIC in the data set with Klebsiella pneumoniae stood at 45 µM; with Staphylococcus aureus, 4 µM; in the data set on Enterococcus faecium, 5 µM; in the data set on Acinetobacter baumannii, 6 µM; with Pseudomonas aeruginosa it was 20 µM; in the data set on Enterobacter cloacae it was 40 µM.

Regarding `CC(C)C[C@@H]1NC(=O)[C@H](CCCN)N(N)C(=O)[C@H](C(C)C)NC(=O)[C@@H]2CCCN2C(=O)[C@@H](Cc2ccccc2)N(N)C(=O)[C@H](CC(C)C)NC(=O)[C@H](CCCN)N(N)C(=O)[C@H](C(C)C)NC(=O)[C@@H]2CCCN2C(=O)[C@@H](Cc2ccccc2)NC1=O` (cyclo(L[dF]PV[Orn(Nα-NH2)]L[X1]PV[Orn(Nα-NH2)])), the MIC is greater than 50 µM with Klebsiella pneumoniae; 2 µM in the data set on Staphylococcus aureus; 2 µM in the data set on Enterococcus faecium; 6 µM in the data set with Acinetobacter baumannii; 12 µM in the data set with Pseudomonas aeruginosa; greater than 50 µM in the data set on Enterobacter cloacae.

Regarding `CC(C)C[C@@H]1NC(=O)[C@H](CCCN)NC(=O)[C@H](C(C)C)NC(=O)[C@@H]2CCCN2C(=O)[C@@H](Cc2ccccc2)NC(=O)[C@H](CC(C)C)NC(=O)[C@H](CCCN)N(N)C(=O)[C@H](C(C)C)NC(=O)[C@@H]2CCCN2C(=O)[C@@H](Cc2ccccc2)NC1=O` (cyclo(L[dF]PV[Orn]L[dF]PV[Orn(Nα-NH2)])), the MIC in the data set with Klebsiella pneumoniae was found to be 40 µM; in the data set on Staphylococcus aureus it was 2 µM; with Enterococcus faecium, 3 µM; in the data set with Acinetobacter baumannii, 6.5 µM; with Pseudomonas aeruginosa, 13 µM; in the data set on Enterobacter cloacae, 30 µM.

For the molecule `CC(C)C[C@@H]1NC(=O)[C@H](CCCN)NC(=O)[C@H](C(C)C)NC(=O)[C@@H]2CCCN2C(=O)[C@@H](Cc2ccccc2)N(N)C(=O)[C@H](CC(C)C)NC(=O)[C@H](CCCN)NC(=O)[C@H](C(C)C)NC(=O)[C@@H]2CCCN2C(=O)[C@@H](Cc2ccccc2)N(N)C1=O` (cyclo(L[X1]PV[Orn]L[X1]PV[Orn])), the MIC in the data set on Klebsiella pneumoniae was greater than 50 µM; in the data set on Staphylococcus aureus, 4 µM; with Enterococcus faecium it was 4 µM; with Acinetobacter baumannii, 12.5 µM; in the data set with Pseudomonas aeruginosa, 35 µM; in the data set on Enterobacter cloacae, greater than 50 µM. In the data set with Erythrocyte, the Activity entry is reported as “Toxic”.

With `CC(C)C[C@@H]1NC(=O)[C@H](CCCN)NC(=O)[C@H](C(C)C)NC(=O)[C@@H]2CCCN2C(=O)[C@@H](Cc2ccccc2)N(N)C(=O)[C@H](CC(C)C)NC(=O)[C@H](CCCN)N(N)C(=O)[C@H](C(C)C)NC(=O)[C@@H]2CCCN2C(=O)[C@@H](Cc2ccccc2)N(N)C1=O` (cyclo(L[X1]PV[Orn]L[X1]PV[Orn(Nα-NH2)])), the MIC in the data set with Klebsiella pneumoniae came out at 50 µM; in the data set on Staphylococcus aureus it was 3 µM; in the data set on Enterococcus faecium, 3 µM; with Acinetobacter baumannii, 6.5 µM; with Pseudomonas aeruginosa, 20 µM; with Enterobacter cloacae, 35 µM.

For `CC(C)C[C@@H]1NC(=O)[C@H](CCCN)N(N)C(=O)[C@H](C(C)C)NC(=O)[C@@H]2CCCN2C(=O)[C@@H](Cc2ccccc2)N(N)C(=O)[C@H](CC(C)C)NC(=O)[C@H](CCCN)N(N)C(=O)[C@H](C(C)C)NC(=O)[C@@H]2CCCN2C(=O)[C@@H](Cc2ccccc2)N(N)C1=O` (cyclo(L[X1]PV[Orn(Nα-NH2)]L[X1]PV[Orn(Nα-NH2)])), the minimum inhibitory concentration (MIC) with Klebsiella pneumoniae was greater than 50 µM; in the data set with Staphylococcus aureus it was 2 µM; in the data set with Enterococcus faecium it was 2 µM; in the data set with Acinetobacter baumannii it was 5 µM; with Pseudomonas aeruginosa, 15 µM; in the data set with Enterobacter cloacae it was greater than 50 µM. For the same molecule, the Activity result in the data set with Erythrocyte is given as “Toxic”.

With `CC(C)C[C@@H]1NC(=O)[C@H](CCCN)NC(=O)[C@H](C(C)C)NC(=O)[C@@H]2CCCN2C(=O)[C@@H](Cc2ccccc2)NC(=O)[C@H](CC(C)C)NC(=O)[C@H](CCCN)NC(=O)[C@H](C(C)C)NC(=O)[C@@H]2CCCN2C(=O)[C@@H](Cc2ccccc2)NC1=O` (cyclo(L[dF]PV[Orn]L[dF]PV[Orn])), the hemolysis at 50 µM in data set [1] turned out to be 22%.

For `CC(C)C[C@@H]1NC(=O)[C@H](CCCN)NC(=O)[C@H](C(C)C)NC(=O)[C@@H]2CCCN2C(=O)[C@@H](Cc2ccccc2)NC(=O)[C@H](CC(C)C)NC(=O)[C@H](CCCN)NC(=O)[C@H](C(C)C)NC(=O)[C@@H]2CCCN2C(=O)[C@@H](Cc2ccccc2)NC1=O` (cyclo(V[Orn]L[dF]PV[Orn]L[dF]P)), the MIC with Klebsiella pneumoniae turned out to be 40 µM; in the data set on Staphylococcus aureus, 3 µM; in the data set on Enterococcus faecium it was 3 µM; in the data set on Acinetobacter baumannii, 6.5 µM; in the data set with Pseudomonas aeruginosa, 20 µM; in the data set on Enterobacter cloacae, 35 µM.

Take `CC(C)C[C@@H]1NC(=O)[C@H](CCCN)N(N)C(=O)[C@H](C(C)C)NC(=O)[C@@H]2CCCN2C(=O)[C@@H](Cc2ccccc2)N(N)C(=O)[C@H](CC(C)C)NC(=O)[C@H](CCCN)NC(=O)[C@H](C(C)C)NC(=O)[C@@H]2CCCN2C(=O)[C@@H](Cc2ccccc2)NC1=O` (cyclo(L[dF]PV[Orn]L[X1]PV[Orn(Nα-NH2)])): the MIC turned out to be 45 µM in the data set with Klebsiella pneumoniae; 2 µM in the data set on Staphylococcus aureus; 3 µM in the data set with Enterococcus faecium; 6.5 µM in the data set with Acinetobacter baumannii; 15 µM in the data set with Pseudomonas aeruginosa; 30 µM in the data set on Enterobacter cloacae.

The record behind these values is ChEMBL document CHEMBL4622897, “Synthesis and biological evaluation of backbone-aminated analogues of gramicidin S” (Bioorg Med Chem Lett, 2020).
